The results in this text go back to ChEMBL document CHEMBL5727757, “Methods, compositions, and uses of novel Fyn kinase inhibitors” (2020).

In the test the target is Tyrosine-protein kinase Fyn (Homo sapiens, UniProt P06241). Put plainly: ADP-Glo Kinase Assay: The assay procedure determines the IC50 of each potential FYN kinase inhibitor by measuring the enzyme catalyzed ATP-dependent phosphorylation of the FYN substrate peptide. The ADP-Glo™ Kinase Assay is specifically designed to quantify kinase activity by measuring the ADP produced in the reaction The reaction buffer comprises 40 mM Tris.HCl (pH 7.5), 20 mM MgCl2, 0.1 mg/ml BSA and 5 microM DTT. Individual compounds within the chemical library were dissolved in DMSO at known concentrations. Briefly, 2.5 microliters of reaction buffer containing 3 picograms of FYN kinase and serial dilutions of each potential FYN kinase inhibitor (9 3-fold dilutions of a 10 micromolar top sample) are placed into each well of a 384 well microtiter plate and incubated at room temperature for 30 minutes. An additional 2.5 microliters of reaction buffer containing 100 picograms of the FYN substrate and 12.5 picomoles of ATP are then added to each well and the reaction carried out for 90 minutes at room temperature.
Tyrosine-protein kinase Fyn, sequence (P06241 whole entry): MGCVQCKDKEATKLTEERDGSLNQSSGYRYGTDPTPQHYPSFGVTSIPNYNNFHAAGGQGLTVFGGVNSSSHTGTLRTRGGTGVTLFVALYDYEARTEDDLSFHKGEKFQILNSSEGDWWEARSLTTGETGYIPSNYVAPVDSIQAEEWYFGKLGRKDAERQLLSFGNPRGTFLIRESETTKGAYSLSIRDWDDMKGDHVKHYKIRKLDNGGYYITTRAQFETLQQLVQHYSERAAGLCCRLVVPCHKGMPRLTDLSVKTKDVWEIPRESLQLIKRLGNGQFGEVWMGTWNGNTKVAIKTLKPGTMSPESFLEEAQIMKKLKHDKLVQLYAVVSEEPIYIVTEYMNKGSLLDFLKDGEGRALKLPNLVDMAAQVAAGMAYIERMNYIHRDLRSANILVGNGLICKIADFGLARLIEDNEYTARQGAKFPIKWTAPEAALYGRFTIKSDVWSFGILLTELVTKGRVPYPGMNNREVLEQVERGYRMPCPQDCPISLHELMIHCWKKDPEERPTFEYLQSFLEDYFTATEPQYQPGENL
With `COc1cc(-c2nn([C@H]3CC[C@H](N4CCN(C)CC4)CC3)c3ncnc(N)c23)ccc1NC(=O)c1cc2ccccc2n1C`, the IC50 – broadly, the concentration that inhibits the measured activity by half – came out at 330 nM. On to `COc1ccc2c(c1)-c1nc(Nc3cc(C)c(OCCN(C)C)c(C)c3)ncc1CC2`, for which the IC50 turned out to be 8 nM. The result for `COc1cc2ncnc3c2cc1OCCCCCN(C(=O)OCc1ccccc1)Cc1ccc2c(c1N3)OCO2` reads 6.69 nM; that for `COc1ccc2c(c1)-c1nc(Nc3ccc(CCCN4CCCC4)c(OC)c3)ncc1CC2(C)C`, 8 nM.
